Measurements as given in article PMC3739326 (The Biochemical journal, 2011).
One block for each compound: values may come before it.

Assays:
[1] = test system: lymphoblasts from SCA11-affected individuals; settings: cycloheximide as inhibitor of nonsense-mediated decay; cited from earlier work
[2] = molecular target: GST–TTBK2-(1–450) wild-type (Homo sapiens, UniProt Q6IQ55); experiment: TTBK2 peptide kinase assay; type: biochemical
[3] = test system: TTBK2[R181A or R181E] or TTBK2[A184G or A184E] mutants, GST–TTBK2-(1–450); experiment: TTBK2 peptide kinase assay with phosphate-priming groove mutants; type: biochemical, human; settings: read-out: Km of peptide phosphorylation by TTBK2 mutants, 0.1 mM [γ-32P]ATP, 20 min at 30 °C, non-linear regression

Sequence of GST–TTBK2-(1–450) wild-type (Q6IQ55 1-450): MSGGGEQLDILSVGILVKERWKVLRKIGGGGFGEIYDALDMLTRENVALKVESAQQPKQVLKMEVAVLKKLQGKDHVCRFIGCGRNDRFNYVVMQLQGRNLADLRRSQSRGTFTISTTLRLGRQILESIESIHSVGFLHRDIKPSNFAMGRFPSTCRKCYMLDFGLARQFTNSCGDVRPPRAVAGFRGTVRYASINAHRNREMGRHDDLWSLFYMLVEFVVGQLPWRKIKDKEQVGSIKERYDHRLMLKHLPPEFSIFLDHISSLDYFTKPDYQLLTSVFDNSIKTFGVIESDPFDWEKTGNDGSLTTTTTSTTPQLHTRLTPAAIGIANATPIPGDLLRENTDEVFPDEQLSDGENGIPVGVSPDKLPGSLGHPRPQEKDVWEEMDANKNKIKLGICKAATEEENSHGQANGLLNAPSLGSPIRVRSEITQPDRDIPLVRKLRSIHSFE

Compound: C[C@@H]1C[C@@H]([C@H](O)CC2CC(=O)NC(=O)C2)C(=O)[C@@H](C)C1 [cycloheximide]
- TTBK2 mRNA level [1]: increased TTBK2 mRNA to levels that are similar in the normal transcript

Compound: RRKDLHDDEEDEAMS*ITA [CK1tide, reference compound]
- peptide phosphorylation by TTBK2 (in words) ([2]; TTBK2-(1–450)): phosphorylates CK1tide specifically at this serine residue

- Km [3]: 100 to 150 µM
- decrease of Km value by introducing a phosphotyrosine at the +2 position ([2]; relative to CK1tide): approximately 8 fold
- Vmax of peptide phosphorylation by TTBK2 ([2]; wild-type TTBK2, 0.1 mM [γ-32P]ATP, 20 min at 30 °C, non-linear regression): 76 units/mg
Compound: RRKDLHDDEEDEAMSIYpA [TTBKtide]
